These results are taken from patent US10639284B2, “Immunomodulator compounds” (CHEMOCENTRYX, INC., priority 2016, dated 2020).

Where two headings read alike, the source gives them in different places. Bounds are passed on as bounds.

This test has as its target human PD-L1 / Human PD-1 (Homo sapiens (Human), UniProt Q9NZQ7). The test is described as follows: Enzyme-Linked Immunosorbent Assay (ELISA), PD-1/PD-L1 binding. Particulars: plate-coated human PD-L1, biotinylated human PD-1, read-out: ELISA IC50. Summed up: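 Human PD-L1 coated at 1 μg/mL overnight at 4° C; samples diluted 1:5 and incubated with human PD-1 and biotin (0.3 μg/mL) for 1 h at 37° C. Bound PD-1 detected with streptavidin-HRP and TMB (20 min, 37° C), acid-stopped, absorbance at 450 nm.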
(In general: In an ELISA, binding on a coated surface is turned into a signal by an enzyme label.)

Sequence of human PD-L1 / Human PD-1 (Q9NZQ7 19-239): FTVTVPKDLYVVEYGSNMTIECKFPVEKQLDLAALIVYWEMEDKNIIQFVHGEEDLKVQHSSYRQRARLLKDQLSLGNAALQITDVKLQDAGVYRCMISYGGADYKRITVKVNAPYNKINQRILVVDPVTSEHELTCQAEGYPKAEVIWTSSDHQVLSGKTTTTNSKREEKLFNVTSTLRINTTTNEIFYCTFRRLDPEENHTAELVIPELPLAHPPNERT

In general, IC50 refers to the midpoint of a concentration-inhibition curve. For `N#Cc1cncc(COc2cc(O[C@@H]3CCc4c(-c5ccccc5)cccc43)c(Cl)cc2CNC[C@@H](O)CC(=O)O)c1` [Example 1.008], the 50% inhibitory concentration (IC50) (Table 2) is less than 100 nM.
Consider `CN(C)CCCCCNCc1cc(Cl)c(O[C@H]2CCc3c(-c4ccccc4F)cccc32)cc1OCc1cncc(C#N)c1` [Example 3.080], for which the IC50 (Table 3) is less than 100 nM.
As to `N#Cc1cncc(COc2cc(O[C@H]3CCc4c(-c5ccccc5F)cccc43)c(Cl)cc2CN2CC[C@@H](O)C2)c1` [Example 2.019], the 50% inhibitory concentration (IC50) (Table 2) was less than 100 nM.
With `N#Cc1cncc(COc2cc(O[C@H]3CCc4c(-c5ccc6ccccc6c5)cccc43)c(Cl)cc2CN[C@@H](CO)C(=O)O)c1` [Example 3.125], the IC50 (Table 3) is 500 to 20000 nM.
The same measure, in the same setting: the same measure for `N#Cc1cncc(COc2cc(O[C@H]3CCc4c(-c5ccccc5F)cccc43)c(Cl)cc2CN2CC(O)C2)c1` [Example 3.114]: 500 to 20000 nM; for `O=C(O)[C@H](CO)NCc1cc(Cl)c(O[C@H]2CCc3c(-c4ccccc4F)cccc32)cc1OCc1cncc(Br)c1` [Example 3.100]: less than 100 nM.
On to `N#Cc1cccc(-c2cc(O[C@H]3CCc4c(-c5ccccc5F)cccc43)c(Cl)cc2CN[C@@H](CO)C(=O)O)c1` [Example 2.121], for which the 50% inhibitory concentration (IC50) (Table 2) lay within 100 to 500 nM.
On to `N#Cc1cc(COc2cc(O[C@H]3CCc4c(-c5cccc(O)c5F)cccc43)c(Cl)cc2CN[C@@H](CO)C(=O)O)cc(NC=O)c1` [Example 3.020], for which, under “Table 3”, the IC50 is less than 100 nM.
For `N#Cc1cncc(COc2cc(O[C@H]3CCc4c(-c5cccc(F)c5)cccc43)c(Cl)cc2CN[C@@H](CO)C(=O)O)c1` [Example 2.010], under “Table 2”, the IC50 was less than 100 nM.
On to `CCOc1cc(O[C@H]2CCc3c(-c4ccccc4F)cccc32)c(Cl)cc1CN[C@@H](C)C(=O)O` [Example 2.154], for which, where the note is “Table 2”, the IC50 lay in the range of 100 to 500 nM.
As for `CC(N[C@@H](CO)C(=O)O)c1cc(Cl)c(O[C@H]2CCc3c(-c4cccc5c4OCCO5)cccc32)cc1OCc1cncc(C#N)c1` (some centres unmarked) [Example 3.113], the IC50 (Table 3) was 500 to 20000 nM.
`CCOc1cc(O[C@H]2CCc3c(-c4ccc5c(c4F)OCCO5)cccc32)c(Cl)cc1CN[C@@H](CO)C(=O)O` [Example 2.056]: where the note is “Table 2”, the IC50 was less than 100 nM.
As for `N#Cc1cncc(COc2cc(O[C@H]3CCc4c(-c5ccccc5F)cccc43)c(Cl)cc2CN[C@@H](CNC(=N)N)C(=O)O)c1` [Example 3.096], the concentration for half-maximal inhibition (IC50) (Table 3) was in the range of 100 to 500 nM.
Take `N#Cc1cncc(COc2cc(O[C@H]3CCc4c(Br)cccc43)c(Cl)cc2CN[C@@H](CO)C(=O)O)c1` [Example 3.028]: where the note is “Table 3”, the IC50 lay within 500 to 20000 nM.
For the compound `N#Cc1cncc(COc2cc(O[C@H]3CCc4c(-c5ccccc5F)cccc43)c(Cl)cc2CN2CC[C@@H](C(=O)O)C2)c1` [Example 3.132], the 50% inhibitory concentration (IC50) (Table 3) was less than 100 nM.
For the compound `N#Cc1cncc(COc2cc(O[C@H]3CCc4c(-c5cc6c(c(F)c5F)OCCO6)cccc43)c(Cl)cc2CN[C@@H](CO)C(=O)O)c1` [Example 3.011], the IC50 (Table 3) is less than 100 nM.
Regarding `COc1cccc(-c2cccc3c2CC[C@@H]3Oc2cc(OCc3cncc(C#N)c3)c(CN3CCC(O)C(CO)C3)cc2Cl)c1Cl` (some centres unmarked) [Example 3.124], the IC50 (Table 3) was 100 to 500 nM.
In the case of `Cc1cccc(-c2cccc3c2CC[C@@H]3Oc2cc(OCc3cncc(C#N)c3)c(CN3CC(O)C3)cc2Cl)c1F` [Example 2.076], the IC50 (Table 2) was in the range of 100 to 500 nM.
For `CC(O)C(NCc1cc(Cl)c(O[C@H]2CCc3c(-c4ccccc4F)cccc32)cc1OCc1cncc(C#N)c1)c1nnn[nH]1` (some centres unmarked) [Example 3.134], under “Table 3”, the IC50 is less than 100 nM.
Take `CC(C)OC(=O)[C@H](CO)NCc1cc(Cl)c(O[C@H]2CCc3c(-c4ccccc4F)cccc32)cc1OCc1cncc(C#N)c1` [Example 2.172]: the IC50 (Table 2) was 500 to 20000 nM.
On the same count and under the same terms, with `N#Cc1cncc(COc2cc(OC3CCc4c(-c5ccccc5)cccc43)c(Cl)cc2CN2CC(O)C2)c1` (centres unmarked) [Example 1.007] the figure was 100 to 500 nM.
For `N#Cc1cncc(COc2cc(O[C@H]3CCc4c(-c5ccccc5F)cccc43)c(Cl)cc2CNC2CCOCC2)c1` [Example 3.072], the 50% inhibitory concentration (IC50) (Table 3) is less than 100 nM.
Take `CN(C)Cc1cc(Cl)c(O[C@H]2CCc3c(-c4ccccc4F)cccc32)cc1OCc1cncc(C#N)c1` [Example 2.031]: the half-inhibitory concentration (IC50) (Table 2) was less than 100 nM.
Regarding `CC(NCc1cc(Cl)c(O[C@H]2CCc3c(-c4ccccc4F)cccc32)cc1OCc1cncc(C#N)c1)c1ccn(C)n1` (some centres unmarked) [Example 3.066], for the setting “Table 3”, the IC50 lay within 100 to 500 nM.
Regarding `N#Cc1cncc(COc2cc(O[C@H]3CCc4c(-c5ccccc5F)cccc43)c(Cl)cc2CN2CC[C@H](O)C2)c1` [Example 2.020], the half-inhibitory concentration (IC50) (Table 2) is 100 to 500 nM.
The same measure, in the same setting: with `N#Cc1cncc(COc2cc(O[C@H]3CCc4c(-c5ccccc5)cccc43)c(Cl)cc2CNC[C@@H](O)CC(=O)O)c1` [Example 1.009] the figure was less than 100 nM.
As for `N#Cc1cncc(COc2cc(O[C@H]3CCc4c(-c5ccccc5F)cccc43)c(Cl)cc2CN[C@H](CO)C(=O)O)c1` [Example 2.102], the 50% inhibitory concentration (IC50) (Table 2) was less than 100 nM.
In the case of `COc1cccc(-c2cccc3c2CC[C@@H]3Oc2cc(OCc3cncc(C#N)c3)c(CN3CCC(O)CC3)cc2Cl)c1F` [Example 2.052], the IC50 (Table 2) is 100 to 500 nM.
Consider `N#Cc1cncc(COc2cc(O[C@H]3CCc4c(-c5ccccc5F)cccc43)c(Cl)cc2CNc2cncc(CO)c2)c1` [Example 3.097], for which the IC50 (Table 3) lay in the range of 500 to 20000 nM.
Turning to `N#Cc1cncc(COc2cc(OC3CCc4c(-c5ccccc5)cccc43)c(Cl)cc2CN2CCC2)c1` (centres unmarked) [Example 1.006], under “Table 2”, the IC50 fell in the range of 100 to 500 nM.
As for `CC(C)[C@H](NCc1cc(Cl)c(O[C@H]2CCc3c(-c4ccccc4F)cccc32)cc1OCc1cncc(C#N)c1)C(=O)O` [Example 2.123], the IC50 (Table 2) is 100 to 500 nM.
Regarding `N#Cc1cncc(COc2cc(O[C@H]3CCc4c(-c5ccccc5F)cccc43)c(Cl)cc2CN[C@H]2CC[C@H](O)CC2)c1` [Example 3.068], the 50% inhibitory concentration (IC50) (Table 3) was less than 100 nM.
